ChEMBL document CHEMBL1155752, “Isolation and structure of korolkoside, a bis-iridoid glucoside from Lonicera korolkovii” (J Nat Prod, 2001)

Columns and labels:
Mus musculus [1] = assay: Acute toxicity in ddY mouse at 2 mg/mouse, ip assessed as death after 12 hrs; assay type: organism-based; settings: in vivo
Mus musculus [2] = assay: Acute toxicity in ddY mouse at 38 mg/mouse, ip assessed as death after 12 hrs; assay type: organism-based; settings: in vivo

| SMILES | Activity (Mus musculus [1]) | Activity (Mus musculus [2]) |
| --- | --- | --- |
| C=C[C@H]1[C@H](O[C@@H]2O[C@H](CO)[C@@H](O)[C@H](O)[C@H]2O)OC=C(C(=O)OC)[C@H]1C[C@@H]1OC[C@H]2O[C@@H](O[C@@H]3OC=C(C(=O)OC)[C@@H](CC(OC)OC)[C@H]3C=C)[C@H](O)[C@@H](O)[C@@H]2O1 [KOROLKOSIDE] | Non-toxic |  |
| C=C[C@H]1[C@H](O[C@@H]2O[C@H](CO)[C@@H](O)[C@H](O)[C@H]2O)OC=C(C(=O)OC)[C@H]1CC(OC)OC [SECOLOGANIN DIMETHYL ACETAL] |  | Non-toxic |
